# Measured values taken from patent US20100317525A1, “HERBICIDAL MIXTURE” (E.I. DU PONT DE NEMOURS AND COMPANY, priority 2007, published 2010).
# System: Digitaria nuda
# Assay: Test A: postemergence greenhouse control of Digitaria nuda, visual rating
# Type: in vivo
# Details: postemergence 3-4-leaf stage, 7 DAT, mean of 3 replicates
# Experimental: Plastic pots (10-cm square) were filled to the rim with a sandy loam soil having pH of 6.1, 1.4% organic matter and a cation exchange capacity (CEC) of 5.7 milliequivalents per 100 grams (meq/100 g). The soil was tamped firm to a uniform level of 2.5 cm below the rim of each pot. A measured amount of seeds of Digitaria nuda were scattered on the soil surface. Seeded pots were covered with approximately 50 mL of the same planting soil and tamped. The pots were then placed in a greenhouse and watered thoroughly 2-3 times daily as needed. A balanced fertilizer solution was injected into the watering system to provide 218 ppm of nitrogen. Artificial lighting was used to supplement natural light to produce a 14 h photoperiod. Greenhouse temperatures were targeted for 28.8 ° C. in the day and 19.8 ° C. at night.
# When the D. nuda plants reached the 3-4-leaf growth stage (8-12 cm height), the pots were sorted into test units for herbicide application. Treatments were replicated three times. The herbicides were diluted in a measured amount of water and then mixed using a magnetic stir bar for 10 minutes before aliquots were taken to make individual treatment solutions. Diuron was in the form of the DuPont product KARMEX, which is a wettable granule formulation containing 80 weight % active ingredient. Hexazinone was in the form of the DuPont product VELPAR DF, which is a wettable granule formulation containing 75 weight % active ingredient. A mixture of hexazinone and diuron in 11:39 weight ratio was in the form of the DuPont product VELPAR-K (VELPAR-K4) 60 WG, which is a wettable granule formulation containing 13.2 weight % hexazinone and 46.8 weight % diuron active ingredients. A mixture of hexazinone and diuron in 1:8 weight ratio was in the form of the DuPont product VELPAR-K8 (marketed in Brazil as ADVANCE Herbicide), which is a wettable granule formulation containing 6.7 weight % hexazinone and 53.3 weight % diuron active ingredients. Tembotrione was in the form of the Bayer product LAUDIS, which was a suspension concentrate formulation stated to contain […] tembotrione active ingredient and 22 g isoxadifen-ethyl (a herbicide safener) per liter. These products were applied alone and in combinations. Application rates of diuron and hexazinone were 1800 and 210 g ai ha^−1, respectively. The application rates of the VELPAR-K4 mixture of hexazinone and diuron (132 g a.i. hexazinone+468 g a.i. diuron/kg of formulated product) and VELPAR-K8 mixture of hexazinone and diuron (67 g a.i. hexazinone+533 g a.i. diuron/kg of formulated product) were 1200 and 1800 g total a.i. ha^−1, respectively. Application rates of tembotrione were 30, 60, 90 and 120 g a.i./ha. (“a.i.” means active ingredient.) The pots were then sprayed through a T-Jet 8002E nozzle using a stationary belt sprayer calibrated to deliver 281 L/ha at 276 kPa. Treatments were replicated three times.
# The plants were returned to the greenhouse, and then control was visually evaluated relative to the control plants at 7 days after treatment (DAT). A numerical percent rating system was used to describe the response observed from each treatment on a scale of 0 to 100%, in which 0% indicates no response and 100% indicates plant death or near death. The reported results are the mean averages of the three replicates.
# Colby's Equation was used to determine the herbicidal effects expected from the mixtures. […]
SMILES,% Control Observed (tembotrione 30 g a.i./ha (as LAUDIS)) [%],% Control Observed (tembotrione 60 g a.i./ha (as LAUDIS)) [%],% Control Observed (tembotrione 90 g a.i./ha (as LAUDIS)) [%],% Control Observed (tembotrione 120 g a.i./ha (as LAUDIS)) [%],% Control Observed (diuron 1800 g a.i./ha (as KARMEX)) [%]
"CS(=O)(=O)c1ccc(C(=O)C2C(=O)CCCC2=O)c(Cl)c1COCC(F)(F)F [Tembotrione, 2-[2-chloro-4-(methylsulfonyl)-3-[(2,2,2-trifluoroethoxy)methyl]-benzoyl]-1,3-cyclohexanedione]",37,40,53,60,–
"CN(C)C(=O)Nc1ccc(Cl)c(Cl)c1 [Diuron, N′(3,4-dichlorophenyl)-N,N-dimethylurea]",–,–,–,–,20
